In patent US11136292B2, “Plant growth regulator compounds” (SYNGENTA PARTICIPATIONS AG, priority 2016, dated 2021):
Like-named read-outs stand apart in the source and are kept apart here.

System: NK Falkone 2015 corn seeds
Assay: Corn seed germination under cold stress (Example B1)
Assay type: in vivo
Settings: Zea mays, cold stress 15° C.; for change in vivo at 2 µM: Rate 2 μM; for change in vivo at 10 µM: Rate 10 μM; for change in vivo at 50 µM: Rate 50 μM; for change in vivo at 250 µM: Rate 250 μM
Description: The effect of compounds of formula (I) on the germination of NK Falkone 2015 corn seeds under cold stress was evaluated as follows. NK Falkone corn seeds were sorted by size using 2 sieves, one excluding very big seeds and the other with round holes of 8 to 9 mm diameter. The seeds retained by the latter sieve were used for the germination test. The corn seeds were placed in 24 well plates (each plate was considered as one experimental unit or replicate). Germination was initiated by the addition of 250 μl of distilled water containing 0.5% DMSO per well as a means for compound solubilization. 8 replicates (ie, 8 plates) were used for each treatment characterization. Plates were sealed using seal foil (Polyolefin Art. Nr. 900320) from HJ-BIOANALYTIK. All plates were placed horizontally on trolleys in a climatic chamber at 15° C. The experiment was laid out in a completely randomized design in climatic chamber with 75% Relative Humidity. Foils were pierced, one hole per well using a syringe after 72 hours for experiments performed at 15° C.
Germination was followed over time by taking photographs at different time points. Image analysis was performed automatically with a macro which was developed using the Image J software. A dynamic analysis of germination was carried out by fitting a logistic curve. Three parameters were calculated from the logistic curve: the T50; the slope and the plateau. All three parameters have a high agronomical relevance and are key requirements to ensure a good early crop-establishment. All the values are expressed as percentages compared to an untreated control. All the three parameters are calculated considering 8 replicates and the kinetic parameters are separately determined for each germination curve. Data in bold indicate germination enhancing statistically significant differences between treated seeds and untreated control (p<0.05). The T50 corresponds to the time needed for half of the seed population to germinate. Higher negative %-values indicate faster germination. The slope indicates how synchronous the germination of the seed population is. Positive values indicate steeper curve; the steeper the curve, the better and more uniform the germination is.

[1] = slope of logistic germination curve, read-out: Slope (% vs control)
[2] = time for half of seeds to germinate, control T50 = 110 hours, read-out: T50 (% vs control)

Row | SMILES | change in vivo at 2 µM [1] [%] | change in vivo at 2 µM [2] [%] | change in vivo at 10 µM [1] [%] | change in vivo at 10 µM [2] [%] | change in vivo at 50 µM [1] [%] | change in vivo at 50 µM [2] [%] | change in vivo at 250 µM [1] [%] | change in vivo at 250 µM [2] [%]
1 | CCOC(=O)/C(=C/OC1C=C(C)C(=O)O1)C1CCc2cc3c(cc21)OCO3 (stereo not shown) [Compound I-66] | 22.6 | -5.2 | 2.9 | -2.9 | 34.5 | -5.1 | 31.6 | -5.8
2 | CCOC(=O)/C(=C/OC1OC(=O)C(C)=C1C)C1CCOc2ccccc21 (stereo not shown) [Compound I-91] | -15.3 | 2.5 | -5.4 | 2.7 | 18.8 | -1.5 | 67.4 | -6.1
